Assay results reported in patent US7074789B2, “Kinase inhibitors” (Amgen Inc., priority 1999, dated 2006).
Read-outs that look alike come from different tables or passages of the source.

Columns and labels:
Type in all cases: biochemical
Lck = molecular target: T1, Lck (Homo sapiens, UniProt P06239); test: Kinase inhibition assay (33P transfer), Lck
T1 construct: Kinases are expressed as either kinase domains or full length constructs; made in house
Outline: (§1)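 Filterless plate radiometric format: immobilized poly(Glu,Tyr) 4:1 or poly(Arg,Ser) 3:1, 33P-labelled ATP, tagged recombinant kinase (some with regulatory partners). Incorporated label counted after phosphoric acid wash.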

EGFR = molecular target: T2, EGFR (Homo sapiens, UniProt P00533); test: Kinase inhibition assay (33P transfer), EGFR; settings: Table 2, class symbols A-E; read-out: EGFR-1
T2 construct: Kinases are expressed as either kinase domains or full length constructs; made in house
Outline: (§2)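 Each enzyme, purified to near homogeneity by affinity chromatography, was incubated with ATP carrying 33P and a substrate polymer fixed to the plate. Unbound label was removed with dilute phosphoric acid (0.5%) before adding scintillant and counting. Potency is given as the compound level cutting label uptake by 50%.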

Kdr = molecular target: T3, Kdr (Homo sapiens, UniProt P35968); test: Kinase inhibition assay (33P transfer), Kdr; settings: Table 3, class symbols; read-out: KDR-1
T3 construct: Kinases are expressed as either kinase domains or full length constructs; made in house
Outline: as §1

ErbB2 = molecular target: T4, ErbB2 (Homo sapiens, UniProt P04626); test: Kinase inhibition assay (33P transfer), ErbB2; settings: read-out: ErbB2-2
T4 construct: Kinases are expressed as either kinase domains or full length constructs; made in house
Outline: as §2

IGFR-1 = molecular target: T5, IGFR-1 (Homo sapiens, UniProt P08069); test: Kinase inhibition assay (33P transfer), IGFR-1; settings: Table 2, class symbols A-E
T5 construct: Kinases are expressed as either kinase domains or full length constructs; made in house

c-Met = molecular target: T6, c-Met (Homo sapiens, UniProt P08581); test: Kinase inhibition assay (33P transfer), c-Met; settings: Table 2, class symbols A-E; read-out: Met-1
T6 construct: Kinases are expressed as either kinase domains or full length constructs; made in house
Outline: as §2

Itk = molecular target: T7, Itk (Homo sapiens, UniProt Q08881); test: Kinase inhibition assay (33P transfer), Itk; settings: Table 3, class symbols; read-out: Itk-1
T7 construct: Kinases are expressed as either kinase domains or full length constructs; made in house
T7 sequence (Q08881 1-620): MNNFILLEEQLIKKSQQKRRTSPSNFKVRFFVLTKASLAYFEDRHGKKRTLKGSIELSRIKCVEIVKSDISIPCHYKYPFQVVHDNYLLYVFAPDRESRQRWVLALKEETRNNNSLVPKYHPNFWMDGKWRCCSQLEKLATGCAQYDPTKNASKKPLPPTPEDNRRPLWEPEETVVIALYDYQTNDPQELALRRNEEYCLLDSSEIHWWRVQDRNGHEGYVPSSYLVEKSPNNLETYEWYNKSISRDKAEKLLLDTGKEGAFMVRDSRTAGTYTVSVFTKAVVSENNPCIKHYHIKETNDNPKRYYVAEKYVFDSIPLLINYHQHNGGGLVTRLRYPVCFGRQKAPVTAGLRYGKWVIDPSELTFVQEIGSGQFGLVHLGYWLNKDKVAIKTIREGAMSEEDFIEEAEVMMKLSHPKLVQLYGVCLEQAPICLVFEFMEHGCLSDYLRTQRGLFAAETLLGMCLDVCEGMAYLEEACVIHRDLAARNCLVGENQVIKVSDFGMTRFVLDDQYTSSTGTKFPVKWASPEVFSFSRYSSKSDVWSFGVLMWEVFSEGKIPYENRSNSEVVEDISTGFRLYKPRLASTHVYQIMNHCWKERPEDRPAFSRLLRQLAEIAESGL
Outline: as §2

AKT = molecular target: T8, AKT (Homo sapiens, UniProt Q9Y243); test: Kinase inhibition assay (33P transfer), AKT
T8 construct: Kinases are expressed as either kinase domains or full length constructs; made in house
Outline: as §1

Zap-70 = molecular target: T9, Zap-70 (Homo sapiens, UniProt P43403); test: Kinase inhibition assay (33P transfer), Zap-70
T9 construct: Kinases are expressed as either kinase domains or full length constructs; made in house
T9 sequence (P43403 1-619): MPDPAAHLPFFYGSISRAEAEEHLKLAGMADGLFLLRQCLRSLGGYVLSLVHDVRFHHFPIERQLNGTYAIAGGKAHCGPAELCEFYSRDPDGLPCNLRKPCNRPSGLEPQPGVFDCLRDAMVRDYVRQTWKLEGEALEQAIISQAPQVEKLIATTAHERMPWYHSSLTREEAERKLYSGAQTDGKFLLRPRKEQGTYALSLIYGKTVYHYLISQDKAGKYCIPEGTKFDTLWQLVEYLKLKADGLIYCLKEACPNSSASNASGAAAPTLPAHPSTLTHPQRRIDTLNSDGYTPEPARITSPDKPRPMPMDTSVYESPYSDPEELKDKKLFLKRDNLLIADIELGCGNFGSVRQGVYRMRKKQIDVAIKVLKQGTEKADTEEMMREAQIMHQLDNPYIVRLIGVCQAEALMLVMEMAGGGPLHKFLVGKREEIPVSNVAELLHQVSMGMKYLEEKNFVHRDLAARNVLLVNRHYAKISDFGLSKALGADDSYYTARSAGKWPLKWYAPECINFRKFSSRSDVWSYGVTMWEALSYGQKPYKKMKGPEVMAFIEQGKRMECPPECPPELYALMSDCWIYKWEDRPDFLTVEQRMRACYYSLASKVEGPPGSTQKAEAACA
Outline: as §1

[1] = Table 3, class symbols, read-out: Lck-1
[2] = Table 2, class symbols A-E, read-out: AKT3-1
[3] = Table 3, class symbols, read-out: Zap-1

T8 sequence (Q9Y243 whole entry, the tested form may be a part): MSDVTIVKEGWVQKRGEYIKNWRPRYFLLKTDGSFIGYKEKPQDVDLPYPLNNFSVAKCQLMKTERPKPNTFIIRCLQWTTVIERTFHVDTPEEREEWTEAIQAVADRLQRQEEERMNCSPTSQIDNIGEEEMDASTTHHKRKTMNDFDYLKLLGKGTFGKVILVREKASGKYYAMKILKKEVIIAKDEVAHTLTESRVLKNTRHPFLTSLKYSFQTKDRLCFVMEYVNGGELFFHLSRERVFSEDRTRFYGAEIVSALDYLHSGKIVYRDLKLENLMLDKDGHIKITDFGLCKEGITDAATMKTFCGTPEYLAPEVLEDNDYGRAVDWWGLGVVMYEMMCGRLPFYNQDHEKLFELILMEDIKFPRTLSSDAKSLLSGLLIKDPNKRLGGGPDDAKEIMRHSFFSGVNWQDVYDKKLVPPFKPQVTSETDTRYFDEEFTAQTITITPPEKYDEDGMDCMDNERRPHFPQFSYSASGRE
T4 sequence (P04626 23-1255, species assumed): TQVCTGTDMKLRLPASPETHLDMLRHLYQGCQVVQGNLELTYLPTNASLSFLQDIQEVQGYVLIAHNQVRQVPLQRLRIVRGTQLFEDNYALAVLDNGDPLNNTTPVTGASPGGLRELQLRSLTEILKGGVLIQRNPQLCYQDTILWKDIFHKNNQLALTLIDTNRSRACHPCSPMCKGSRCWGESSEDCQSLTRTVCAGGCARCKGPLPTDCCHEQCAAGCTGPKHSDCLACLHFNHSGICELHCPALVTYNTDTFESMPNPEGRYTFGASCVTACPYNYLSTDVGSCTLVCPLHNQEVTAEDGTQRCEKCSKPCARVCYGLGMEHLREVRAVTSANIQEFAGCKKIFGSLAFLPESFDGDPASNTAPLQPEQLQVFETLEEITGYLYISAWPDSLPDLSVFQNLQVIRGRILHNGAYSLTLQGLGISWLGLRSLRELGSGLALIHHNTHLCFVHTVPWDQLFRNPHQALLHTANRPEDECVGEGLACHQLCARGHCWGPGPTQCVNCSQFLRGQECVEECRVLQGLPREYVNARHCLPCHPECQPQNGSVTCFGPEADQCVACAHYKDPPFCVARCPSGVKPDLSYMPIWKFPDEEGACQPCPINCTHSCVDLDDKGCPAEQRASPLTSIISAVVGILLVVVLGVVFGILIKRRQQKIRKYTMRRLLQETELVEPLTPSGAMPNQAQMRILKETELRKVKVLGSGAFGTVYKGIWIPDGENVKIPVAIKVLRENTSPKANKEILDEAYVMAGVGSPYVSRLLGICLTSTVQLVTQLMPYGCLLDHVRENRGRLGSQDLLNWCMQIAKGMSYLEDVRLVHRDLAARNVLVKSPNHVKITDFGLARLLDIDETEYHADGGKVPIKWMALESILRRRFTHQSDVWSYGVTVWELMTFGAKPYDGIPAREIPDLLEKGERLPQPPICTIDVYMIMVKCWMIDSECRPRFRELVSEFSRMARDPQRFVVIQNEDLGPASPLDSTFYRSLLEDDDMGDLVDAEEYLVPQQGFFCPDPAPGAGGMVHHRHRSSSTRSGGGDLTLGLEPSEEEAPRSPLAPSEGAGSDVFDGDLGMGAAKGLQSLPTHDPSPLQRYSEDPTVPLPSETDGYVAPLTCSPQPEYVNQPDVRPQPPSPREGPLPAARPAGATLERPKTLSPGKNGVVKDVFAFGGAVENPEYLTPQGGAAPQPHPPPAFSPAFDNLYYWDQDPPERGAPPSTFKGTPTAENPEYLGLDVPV
T3 sequence (P35968 20-1356, species assumed): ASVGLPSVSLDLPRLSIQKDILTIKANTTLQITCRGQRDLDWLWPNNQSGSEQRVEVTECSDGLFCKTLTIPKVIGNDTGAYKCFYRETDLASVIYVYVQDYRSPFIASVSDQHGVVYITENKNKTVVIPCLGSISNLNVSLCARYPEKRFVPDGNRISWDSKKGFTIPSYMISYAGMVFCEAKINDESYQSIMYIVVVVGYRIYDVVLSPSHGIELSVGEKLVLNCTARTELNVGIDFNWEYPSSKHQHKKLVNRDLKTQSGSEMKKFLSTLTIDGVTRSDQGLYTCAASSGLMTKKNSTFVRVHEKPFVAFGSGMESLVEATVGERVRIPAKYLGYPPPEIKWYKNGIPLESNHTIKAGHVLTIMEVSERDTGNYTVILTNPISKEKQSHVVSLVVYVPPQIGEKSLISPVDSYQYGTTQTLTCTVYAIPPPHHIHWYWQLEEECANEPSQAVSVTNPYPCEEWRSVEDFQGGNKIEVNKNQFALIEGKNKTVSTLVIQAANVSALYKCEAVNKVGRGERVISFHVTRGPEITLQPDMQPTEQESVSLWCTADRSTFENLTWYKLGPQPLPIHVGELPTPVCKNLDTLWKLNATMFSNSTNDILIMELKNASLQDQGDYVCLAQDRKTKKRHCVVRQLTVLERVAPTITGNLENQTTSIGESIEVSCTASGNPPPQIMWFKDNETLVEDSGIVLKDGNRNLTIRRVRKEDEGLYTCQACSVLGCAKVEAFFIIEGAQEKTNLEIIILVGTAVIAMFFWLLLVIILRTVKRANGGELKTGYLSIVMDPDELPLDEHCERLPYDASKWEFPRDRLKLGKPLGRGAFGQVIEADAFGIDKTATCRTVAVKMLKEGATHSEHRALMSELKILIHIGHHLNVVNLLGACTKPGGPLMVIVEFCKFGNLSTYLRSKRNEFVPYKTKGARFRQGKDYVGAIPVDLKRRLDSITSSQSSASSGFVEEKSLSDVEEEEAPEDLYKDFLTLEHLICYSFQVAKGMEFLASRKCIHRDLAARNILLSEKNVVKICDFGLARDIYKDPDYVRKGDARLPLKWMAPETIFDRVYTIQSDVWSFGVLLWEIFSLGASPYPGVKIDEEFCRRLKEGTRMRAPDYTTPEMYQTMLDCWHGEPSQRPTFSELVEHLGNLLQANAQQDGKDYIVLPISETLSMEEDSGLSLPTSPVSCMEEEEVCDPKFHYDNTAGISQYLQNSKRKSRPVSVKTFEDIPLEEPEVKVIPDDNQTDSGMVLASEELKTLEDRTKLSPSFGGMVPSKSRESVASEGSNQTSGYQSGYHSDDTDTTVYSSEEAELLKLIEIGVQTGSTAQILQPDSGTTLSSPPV
T1 sequence (P06239 whole entry, species assumed, the tested form may be a part): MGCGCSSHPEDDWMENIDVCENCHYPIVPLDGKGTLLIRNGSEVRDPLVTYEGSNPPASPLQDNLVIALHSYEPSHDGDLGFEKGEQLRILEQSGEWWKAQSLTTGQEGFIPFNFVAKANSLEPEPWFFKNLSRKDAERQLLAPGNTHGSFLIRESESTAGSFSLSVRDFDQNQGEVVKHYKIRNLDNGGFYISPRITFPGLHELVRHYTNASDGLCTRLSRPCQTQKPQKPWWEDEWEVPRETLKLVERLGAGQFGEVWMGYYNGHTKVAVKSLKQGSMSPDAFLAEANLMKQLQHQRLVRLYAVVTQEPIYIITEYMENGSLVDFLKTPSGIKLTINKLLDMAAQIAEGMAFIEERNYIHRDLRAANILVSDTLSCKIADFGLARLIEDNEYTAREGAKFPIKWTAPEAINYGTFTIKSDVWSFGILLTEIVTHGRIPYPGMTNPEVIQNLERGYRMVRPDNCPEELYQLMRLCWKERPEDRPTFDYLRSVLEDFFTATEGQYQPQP
T5 sequence (P08069 31-1367): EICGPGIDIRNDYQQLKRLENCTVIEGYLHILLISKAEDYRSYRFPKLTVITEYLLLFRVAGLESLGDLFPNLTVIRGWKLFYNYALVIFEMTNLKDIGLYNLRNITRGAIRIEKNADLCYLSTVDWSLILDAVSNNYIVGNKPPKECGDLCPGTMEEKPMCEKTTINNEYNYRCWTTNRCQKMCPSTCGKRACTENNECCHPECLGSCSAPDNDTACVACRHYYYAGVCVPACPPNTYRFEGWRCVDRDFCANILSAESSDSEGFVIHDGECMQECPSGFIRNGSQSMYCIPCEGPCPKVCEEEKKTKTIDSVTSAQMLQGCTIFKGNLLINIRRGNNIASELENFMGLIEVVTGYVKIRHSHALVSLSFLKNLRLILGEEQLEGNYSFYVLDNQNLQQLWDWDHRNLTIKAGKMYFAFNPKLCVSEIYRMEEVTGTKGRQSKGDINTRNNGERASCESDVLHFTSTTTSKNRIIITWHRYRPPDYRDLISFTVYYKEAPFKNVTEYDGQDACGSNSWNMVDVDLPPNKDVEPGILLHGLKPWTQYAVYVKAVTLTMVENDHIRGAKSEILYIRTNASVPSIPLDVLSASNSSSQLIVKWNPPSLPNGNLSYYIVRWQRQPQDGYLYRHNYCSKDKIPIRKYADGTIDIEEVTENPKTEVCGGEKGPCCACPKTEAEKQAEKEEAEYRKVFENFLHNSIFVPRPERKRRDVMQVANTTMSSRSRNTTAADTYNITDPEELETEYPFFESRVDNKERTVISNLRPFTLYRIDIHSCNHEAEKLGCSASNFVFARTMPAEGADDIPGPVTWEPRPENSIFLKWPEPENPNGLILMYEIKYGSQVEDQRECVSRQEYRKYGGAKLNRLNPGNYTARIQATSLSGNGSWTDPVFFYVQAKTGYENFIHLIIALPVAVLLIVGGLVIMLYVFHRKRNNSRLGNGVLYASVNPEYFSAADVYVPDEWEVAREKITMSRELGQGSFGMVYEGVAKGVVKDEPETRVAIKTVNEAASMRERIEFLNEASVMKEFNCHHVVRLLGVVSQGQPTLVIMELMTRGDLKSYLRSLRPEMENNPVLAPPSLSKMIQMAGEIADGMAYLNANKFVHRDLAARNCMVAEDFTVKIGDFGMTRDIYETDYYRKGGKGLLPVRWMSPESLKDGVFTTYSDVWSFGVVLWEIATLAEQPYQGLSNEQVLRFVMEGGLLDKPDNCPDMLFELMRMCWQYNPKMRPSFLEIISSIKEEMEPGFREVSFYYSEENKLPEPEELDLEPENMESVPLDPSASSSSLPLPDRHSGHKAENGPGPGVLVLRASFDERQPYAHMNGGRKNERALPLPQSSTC

IC50 (Lck; [1])	IC50 (EGFR)	IC50 (Kdr)	IC50 (ErbB2)	IC50 (IGFR-1)	IC50 (c-Met)	IC50 (Itk)	IC50 (AKT; [2])	IC50 (Zap-70; [3])	SMILES	IC50 (Lck; Lck-1, Table 3, class symbols)	IC50 (AKT; AKT3-1, Table 2, class symbols A-E)	IC50 (Zap-70)
1.08 to 6.45 µM	< 1.08 µM	1.08 to 6.45 µM	1.08 to 6.45 µM	1.08 to 6.45 µM	< 1.08 µM	> 12.1 µM	> 12.1 µM	> 12.1 µM	CN(c1cccc(Cl)c1)c1ncnc(Nc2ccc(OCCO)cc2)n1 [Compound 641]	–	–	–
> 12.3 µM	6.57 to 9.58 µM	> 12.3 µM	6.57 to 9.58 µM	> 12.3 µM	> 12.3 µM	> 12.3 µM	> 12.3 µM	> 12.3 µM	COc1ccc(Nc2ncnc(NCC(=O)c3ccccc3)n2)cc1OC [Compound 857]	–	–	–
1.08 to 6.45 µM	< 1.08 µM	6.45 to 9.41 µM	1.08 to 6.45 µM	> 12.1 µM	1.08 to 6.45 µM	> 12.1 µM	> 12.1 µM	> 12.1 µM	COc1ccc(Nc2ncnc(N(C)c3ccccc3Cl)n2)cc1OC [Compound 865]	–	–	–
1.18 to 7.11 µM	< 1.18 µM	< 1.18 µM	1.18 to 7.11 µM	< 1.18 µM	< 1.18 µM	< 1.18 µM	1.18 to 7.11 µM	1.18 to 7.11 µM	Clc1cccc(Nc2ncnc(Nc3ccc4[nH]ncc4c3)n2)c1 [Compound 134]	–	–	–
> 9.97 µM	0.886 to 5.32 µM	< 0.886 µM	0.886 to 5.32 µM	> 9.97 µM	> 9.97 µM	> 9.97 µM	> 9.97 µM	> 9.97 µM	COC(=O)c1cccc(Nc2ncnc(-n3c(NCc4ccccc4)nc4ccccc43)n2)c1 [Compound 1067]	–	–	–
> 11.1 µM	> 11.1 µM	> 11.1 µM	0.984 to 5.91 µM	5.91 to 8.61 µM	> 11.1 µM	> 11.1 µM	> 11.1 µM	> 11.1 µM	COc1ccc(Nc2ncnc(Nc3ccc4c(c3)C(=O)N(C)C4=O)n2)cc1OC [Compound 856]	–	–	–
< 0.865 µM	0.865 to 5.19 µM	0.865 to 5.19 µM	0.865 to 5.19 µM	< 0.865 µM	< 0.865 µM	0.865 to 5.19 µM	> 9.73 µM	> 9.73 µM	COc1cc(Nc2ncnc(Nc3cc(-c4ccc(C(N)=O)cc4)n[nH]3)n2)cc(OC)c1OC [Compound 642]	–	–	–
< 0.872 µM	0.872 to 5.23 µM	< 0.872 µM	5.23 to 7.63 µM	> 9.81 µM	> 9.81 µM	> 9.81 µM	> 9.81 µM	> 9.81 µM	COc1cc(Nc2ncnc(-c3cccnc3N[C@@H](C)c3ccccc3)n2)cc(OC)c1OC [Compound 1111]	–	–	–
1.02 to 6.13 µM	1.02 to 6.13 µM	< 1.02 µM	1.02 to 6.13 µM	> 11.5 µM	1.02 to 6.13 µM	8.94 to 11.5 µM	> 11.5 µM	> 11.5 µM	CC(C)Nc1ncccc1-c1ncnc(Nc2ccc(N3CCOCC3)cc2)n1 [Compound 1112]	–	–	–
5.64 to 8.23 µM	0.94 to 5.64 µM	0.94 to 5.64 µM	0.94 to 5.64 µM	> 10.6 µM	0.94 to 5.64 µM	> 10.6 µM	> 10.6 µM	0.94 to 5.64 µM	c1ccc(Nc2ncccc2-c2ncnc(Nc3ccc(N4CCOCC4)cc3)n2)cc1 [Compound 1113]	–	–	–
> 10.7 µM	0.952 to 5.71 µM	5.71 to 8.33 µM	0.952 to 5.71 µM	5.71 to 8.33 µM	0.952 to 5.71 µM	0.952 to 5.71 µM	0.952 to 5.71 µM	0.952 to 5.71 µM	COc1ccc(Nc2ncnc(NCCc3ccc(Cl)c(Cl)c3)n2)cc1OC [Compound 859]	–	–	–
1.19 to 7.13 µM	10.4 to 13.4 µM	1.19 to 7.13 µM	–	> 13.4 µM	10.4 to 13.4 µM	10.4 to 13.4 µM	> 13.4 µM	10.4 to 13.4 µM	CC(C)Nc1ncccc1-c1ncnc(Nc2cccc(CO)c2)n1 [Compound 1114]	–	–	–
1.12 to 6.71 µM	< 1.12 µM	1.12 to 6.71 µM	< 1.12 µM	< 1.12 µM	6.71 to 9.78 µM	9.78 to 12.6 µM	1.12 to 6.71 µM	1.12 to 6.71 µM	COc1cc(Nc2ncnc(Nc3cccc(Cl)c3)n2)cc(OC)c1 [Compound 723]	–	–	–
> 11.8 µM	> 11.8 µM	6.29 to 9.18 µM	9.18 to 11.8 µM	6.29 to 9.18 µM	1.05 to 6.29 µM	> 11.8 µM	> 11.8 µM	> 11.8 µM	COc1ccc(Nc2ncnc(N(C)c3ccc(C(=O)O)cc3)n2)cc1OC [Compound 860]	–	–	–
1 to 6 µM	< 1 µM	1 to 6 µM	< 1 µM	> 11.3 µM	1 to 6 µM	> 11.3 µM	> 11.3 µM	> 11.3 µM	CCOc1ccc(Nc2ncnc(N(C)c3cccc(Cl)c3)n2)cc1OCC [Compound 640]	–	–	–
0.843 to 5.06 µM	< 0.843 µM	0.843 to 5.06 µM	< 0.843 µM	0.843 to 5.06 µM	0.843 to 5.06 µM	0.843 to 5.06 µM	5.06 to 7.38 µM	> 9.48 µM	c1ccc(Cn2ncc3cc(Nc4ncnc(Nc5cccc(Cn6ccnn6)c5)n4)ccc32)cc1 [Compound 676]	–	–	–
> 11.4 µM	> 11.4 µM	1.01 to 6.07 µM	> 11.4 µM	> 11.4 µM	< 1.01 µM	> 11.4 µM	> 11.4 µM	> 11.4 µM	COC(=O)c1ccc(N(C)c2ncnc(Nc3ccc(OC)c(OC)c3)n2)cc1 [Compound 864]	–	–	–
< 0.872 µM	0.872 to 5.23 µM	5.23 to 7.63 µM	> 9.81 µM	> 9.81 µM	> 9.81 µM	> 9.81 µM	> 9.81 µM	> 9.81 µM	COc1cc(Nc2ncnc(-c3cccnc3N[C@H](C)c3ccccc3)n2)cc(OC)c1OC [Compound 1110]	–	–	–
1.15 to 6.93 µM	1.15 to 6.93 µM	6.93 to 10.1 µM	–	1.15 to 6.93 µM	1.15 to 6.93 µM	> 13 µM	10.1 to 13 µM	> 13 µM	CC(C)Nc1ncccc1-c1ncnc(Nc2ccc3[nH]ncc3c2)n1 [Compound 1116]	–	–	–
0.949 to 5.7 µM	0.949 to 5.7 µM	8.31 to 10.7 µM	–	> 10.7 µM	< 0.949 µM	> 10.7 µM	0.949 to 5.7 µM	> 10.7 µM	COc1ccc(Nc2ncnc(N(C)c3ccccc3OC(F)(F)F)n2)cc1OC [Compound 867]	–	–	–

SMILES	IC50 (Lck; [1])	IC50 (EGFR)	IC50 (Kdr)	IC50 (ErbB2)	IC50 (IGFR-1)	IC50 (c-Met)	IC50 (Itk)	IC50 (AKT; [2])	IC50 (Zap-70; [3])	IC50 (Lck; Lck-1, Table 3, class symbols)	IC50 (AKT; AKT3-1, Table 2, class symbols A-E)	IC50 (Zap-70)
COc1cc(Nc2ncnc(-c3cccnc3Nc3ccccc3)n2)cc(OC)c1OC [Compound 1092]	–	> 10.5 µM	–	> 10.5 µM	> 10.5 µM	> 10.5 µM	> 10.5 µM	–	–	> 10.5 µM	> 10.5 µM	> 10.5 µM
COc1ccc(Nc2ncnc(N(C)C3CCN(C)CC3)n2)cc1OC [Compound 861]	> 12.6 µM	> 12.6 µM	> 12.6 µM	6.7 to 9.76 µM	> 12.6 µM	> 12.6 µM	> 12.6 µM	> 12.6 µM	> 12.6 µM	–	–	–
